According to ChEMBL document CHEMBL6078675, “Discovery of Ureido-Containing Alteropeptilides and Intramolecular Cyclized Alteramides in Pseudoalteromonas flavipulchra S16 by Promoter Engineering of Cryptic Biosynthetic Gene Clusters” (J Nat Prod, 2024):
The source made the active and inactive calls. The calls are words filed in the database; no cut-off is given here. Numbered stars: 1 amine (or outer) side, 2 acyl side, 3 side chain; on linkers, the order of the positions; unused ones are H or OH. Peptide text beside a SMILES is read from it. Trp(6-Br) = N[C@@H](Cc1c[nH]c2cc(Br)ccc12)C(=O)O; CO = O=C([*:1])[*:2]

How the values were obtained:
TE-1 = experiment: Cytotoxicity against human TE-1 cells assessed as inhibition of cell proliferation at 20 uM incubated for 24 hrs by CCK8 assay; type: functional, cell-based
HOS = experiment: Cytotoxicity against human HOS cells assessed as inhibition of cell proliferation at 20 uM incubated for 24 hrs by CCK8 assay; type: functional, cell-based
RAW264.7 [1] = experiment: Cytotoxicity against mouse RAW264.7 cells assessed as inhibition of cell proliferation at 20 uM incubated for 24 hrs by CCK8 assay; type: functional, cell-based
SF-126 = experiment: Cytotoxicity against human SF-126 cells assessed as inhibition of cell proliferation at 20 uM incubated for 24 hrs by CCK8 assay; type: functional, cell-based
MKN-45 = experiment: Cytotoxicity against human MKN-45 cells assessed as inhibition of cell proliferation at 20 uM incubated for 24 hrs by CCK8 assay; type: functional, cell-based
HeLa = experiment: Cytotoxicity against human HeLa cells assessed as inhibition of cell proliferation at 20 uM incubated for 24 hrs by CCK8 assay; type: functional, cell-based
A-375 = experiment: Cytotoxicity against human A-375 cells assessed as inhibition of cell proliferation at 20 uM incubated for 24 hrs by CCK8 assay; type: functional, cell-based
5637 = experiment: Cytotoxicity against human 5637 cells assessed as inhibition of cell proliferation at 20 uM incubated for 24 hrs by CCK8 assay; type: functional, cell-based
786-0 = experiment: Cytotoxicity against human 786-0 cells assessed as inhibition of cell proliferation at 20 uM incubated for 24 hrs by CCK8 assay; type: functional, cell-based
A673 = experiment: Cytotoxicity against human A673 cells assessed as inhibition of cell proliferation at 20 uM incubated for 24 hrs by CCK8 assay; type: functional, cell-based
PaTu 8988t = experiment: Cytotoxicity against human PaTu 8988t cells assessed as inhibition of cell proliferation at 20 uM incubated for 24 hrs by CCK8 assay; type: functional, cell-based
K562 = experiment: Cytotoxicity against human K562 cells assessed as inhibition of cell proliferation at 20 uM incubated for 24 hrs by CCK8 assay; type: functional, cell-based
HepG2 = experiment: Cytotoxicity against human HepG2 cells assessed as inhibition of cell proliferation at 20 uM incubated for 24 hrs by CCK8 assay; type: functional, cell-based
RAW264.7 [2] = experiment: Anti-inflammatory activity against mouse RAW264.7 cells at 20 uM pretreated for 30 mins followed by LPS treatment for 24 hrs by Griess assay; type: functional, cell-based; conditions: time 24.5 hrs
Escherichia coli = experiment: Antibacterial activity against Escherichia coli CGMCC 44102 at 1 mM at 20 uM incubated for 16 hrs by disk diffusion method; type: functional, organism-based
L02 = experiment: Cytotoxicity against human L02 cells assessed as inhibition of cell proliferation at 20 uM incubated for 24 hrs by CCK8 assay; type: toxicity, cell-based; conditions: l02, 24 h
GBC-SD = experiment: Cytotoxicity against human GBC-SD cells assessed as inhibition of cell proliferation at 20 uM incubated for 24 hrs by CCK8 assay; type: functional, cell-based
A549 = experiment: Cytotoxicity against human A549 cells assessed as inhibition of cell proliferation at 20 uM incubated for 24 hrs by CCK8 assay; type: functional, cell-based
MCF7 = experiment: Cytotoxicity against human MCF7 cells assessed as inhibition of cell proliferation at 20 uM incubated for 24 hrs by CCK8 assay; type: functional, cell-based
HCT-116 = experiment: Cytotoxicity against human HCT-116 cells assessed as inhibition of cell proliferation at 20 uM incubated for 24 hrs by CCK8 assay; type: functional, cell-based
CAL-62 = experiment: Cytotoxicity against human CAL-62 cells assessed as inhibition of cell proliferation at 20 uM incubated for 24 hrs by CCK8 assay; type: functional, cell-based
Bacillus subtilis = experiment: Antibacterial activity against Bacillus subtilis ATCC 6633 at 1 mM at 20 uM incubated for 16 hrs by disk diffusion method; type: functional, organism-based
Staphylococcus aureus = experiment: Antibacterial activity against Staphylococcus aureus ATCC 29213 at 1 mM at 20 uM incubated for 16 hrs by disk diffusion method; type: functional, organism-based
DU-145 = experiment: Cytotoxicity against human DU-145 cells assessed as inhibition of cell proliferation at 20 uM incubated for 24 hrs by CCK8 assay; type: functional, cell-based

Row | Structure (SMILES) | Activity (TE-1) | Activity (HOS) | Activity (RAW264.7 [1]) | Activity (SF-126) | Activity (MKN-45) | Activity (HeLa) | Activity (A-375) | Activity 5637 | Activity (786-0) | Activity (A673) | Activity (PaTu 8988t) | Activity (K562) | Activity (HepG2) | Activity (RAW264.7 [2]) | Activity (Escherichia coli) | Activity (L02) | Activity (GBC-SD) | Activity (A549) | Activity (MCF7) | Activity (HCT-116) | further results
1 | COC(=O)[C@@H](NC(=O)[C@H](Cc1c[nH]c2ccccc12)NC(=O)[C@H](Cc1c[nH]c2ccccc12)NC(=O)[C@@H](NC(=O)N[C@@H](Cc1c[nH]c2cc(Br)ccc12)C(=O)O)[C@@H](C)O)C(C)C ({Trp(6-Br)-CO}-TWWV-OMe) | inactive | inactive | inactive | inactive | inactive | inactive | inactive | inactive | inactive | inactive | inactive | inactive | inactive | inactive | inactive | Non-toxic | inactive | inactive | inactive | inactive | Activity (CAL-62): inactive; Activity (Bacillus subtilis): inactive; Activity (Staphylococcus aureus): inactive; Activity (DU-145): inactive
2 | COC(=O)[C@@H](NC(=O)[C@H](Cc1c[nH]c2ccccc12)NC(=O)[C@H](Cc1c[nH]c2ccccc12)NC(=O)[C@@H](NC(=O)N[C@@H](Cc1c[nH]c2ccccc12)C(=O)O)[C@@H](C)O)C(C)C ({Trp-CO}-TWWV-OMe) | inactive | inactive | inactive | inactive | inactive | inactive | inactive | inactive | inactive | inactive | inactive | inactive | inactive | inactive | inactive | Non-toxic | inactive | inactive | inactive | inactive | Activity (CAL-62): inactive; Activity (Bacillus subtilis): inactive; Activity (Staphylococcus aureus): inactive; Activity (DU-145): inactive
